Laboratory results as given in patent US8691186B2, “Imaging infection with compounds that bind to thymidine kinase” (priority 2004, dated 2014).
In brackets after ≈: the same amount, converted by molar mass.

Tests used:
Escherichia coli = assay: In vitro bacterial susceptibility assay, wild type E. coli; assay type: cell-based; conditions: for Susceptibility of E. coli to nucleoside analog (growth inhibition): in vitro, Luria broth, 37° C.
Method: (§1) 1-(2′-deoxy-2′-fluoro-β-D-arabinofuranosyl)-5-iodouracil (FIAU) (Moravek catalog no. M251) and penciclovir (Moravek catalog no. M972) were purchased from Moravek Biochemicals (Brea, Calif.). Zidovudine was purchased from Glaxo Wellcome. Bacterial susceptibility tests were performed in 96-well microtiter plates (VWR Scientific), with serial dilutions of drug placed in each well. Each well was inoculated with Escherichia coli (Yale University E. coli Genetic Stock Center, New Haven, Conn.) and grown in Luria broth (Invitrogen) at 37° C. E. coli TK mutants were generated by selecting for spontaneously resistant colonies on plates containing 1 mg/ml Zidovudine. Ten resistant clones were selected and screened for deletions in the TK gene by using the PCR primers SZ46-eTKKO20F and (5′-[…]-3′ (SEQ ID NO: 1)) SZ49-eTK-K0789R (5′-ATCAAGACGCAGCACCATG-3′ (SEQ ID NO: 2)). […] As a control for integrity of the DNA of this clone, its 16S rRNA gene was amplified by using the primers SZ-16S-Ecoli993F (5′-ACATCCACGGAAGTTT-TCAG-3′ (SEQ ID NO: 3)) SZ 16S-Ecoli454R (5′-CCGAAGGTTAAGC-TACCTAC-3′ (SEQ ID NO: 4)).
To determine whether endogenous bacterial TK could provide a reporter enzyme suitable for imaging, the susceptibility of E. coli to a variety of common nucleoside analogs was examined in vitro.
(§2) In vitro susceptibility tests were performed on C. novyi-NT using 96 well plates containing two-fold serial dilutions of FIAU (Moravek Biochemicals) in reinforced clostridial media (Difco). Approximately, 10^5-10^6 bacteria were inoculated into each well and incubated at 37 C. overnight in an anaerobic chamber. C. novyi-NT growth was measured using an OD600. In order to test the mechanism of action of FIAU on bacteria, the thymidine kinase (TK) gene in E. coli was knocked out. An in vitro FIAU susceptibility test comparing wild type E. coli with the mutant TK deficient E. coli was preformed. 96 well plates were used containing two-fold serial dilutions of FIAU in Lauria Broth. Approximately, 10^5-10^6 bacteria were inoculated into each well and incubated at 37 C. overnight. Growth was measured using OD600.

TK deficient E. coli = assay: In vitro bacterial susceptibility assay, TK-deleted E. coli; assay type: cell-based, Escherichia coli; conditions: for Susceptibility of TK gene-deleted E. coli derivative: in vitro
Method: as §1
To determine whether the TK gene was responsible for this sensitivity, a derivative of E. coli in which the TK gene was deleted was created. […] Because FIAU can be radiolabeled by using commercially available reagents and has been successfully used to image tumor cells transfected with HSV1-TK, it was elected to test its potential for imaging bacterial infections.
as §2, with “96 well plates were used containing two-fold serial dilutions of FIAU in Lauria Broth. Approximately, 10^5-10^6 bacteria were inoculated into each well and incubated at 37 C. overnight.” left out

C. novyi-NT [1] = assay: In vitro susceptibility test on C. novyi-NT; assay type: cell-based, Clostridium novyi-NT; conditions: reinforced clostridial media, overnight, anaerobic, OD600
Method: as §2

WT E. coli = assay: In vivo imaging of WT E. coli thigh infection in mice; design: species or system Escherichia coli
Method: (§3) E. coli strains or clinical isolates from the Johns Hopkins Hospital Microbiology Laboratory, including Staphylococcus aureus 29213 and 25923, Streptococcus pneumoniae 49619, Enterococcus faecalis 49532, and Staphylococcus epidermidis F362, were used to create experimental infections. Bacteria were grown to log phase in Mueller Hinton Broth with Cations (Remel, Lenexa, Kans.) or BBL Todd Hewitt Broth (Becton Dickinson). Localized infections were generated by injecting 1×10^9 E. coli and ≈1×10^8 of the other bacterial strains into mouse thighs. […] To quantify the minimal number of bacteria required to generate signals upon imaging, mice were injected in the thigh with various amounts of S. aureus 25923. One hour later, the mice were killed, the muscles were harvested and homogenized, and the extracts spread on blood agar plates (Becton Dickinson) for colony counting.
(§4) Mice were injected with 225 μCi of [^125I]FIAU via the tail vein and imaged at various time points thereafter. Before imaging, mice were anesthetized via s.c. administration of acepromazine and ketamine. Each scan took min with a dedicated small-animal single-photon emission computed tomography (SPECT)/computed tomography (CT) camera (Gamma Medica X-SPECT, Northridge, Calif.) in planar acquisition mode using a low-energy high-resolution (LEHR) parallel-hole collimator. For each bacterial strain used, at least two mice were injected and imaged. To obtain SPECT/CT images, animals were first scanned for ≈40 min by using a small-animal SPECT camera in tomographic acquisition mode, using two LEHR parallel-hole collimators. The animals then underwent CT by using appropriate fiducial markers that allowed coregistration.
[^125I]FIAU was synthesized by standard methods and injected i.v. into animals 6 h after intramuscular inoculations of bacteria into the thighs of mice. […] Signals from the infectious lesions could be seen as early as 2 h after injection of [^125I]FIAU and were optimal 16 h after injection.

[2] = system: TK-deficient (TK−) strain of E. coli; assay: In vivo imaging of TK- E. coli thigh infection in mice; design: species or system Escherichia coli; conditions: same mice, opposite thighs
Method: as §3
(§5) Mice were injected with 225 μCi of [^125I]FIAU via the tail vein and imaged at various time points thereafter. Before imaging, mice were anesthetized via s.c. administration of acepromazine and ketamine. Each scan took min with a dedicated small-animal single-photon emission computed tomography (SPECT)/computed tomography (CT) camera (Gamma Medica X-SPECT, Northridge, Calif.) in planar acquisition mode using a low-energy high-resolution (LEHR) parallel-hole collimator. […]

[3] = system: Enterococcus faecalis 49532; assay: In vivo imaging of E. faecalis thigh infection in mice; conditions: mouse thigh infection
Method: as §3, §5

[4] = system: Staphylococcus aureus 29213 and 25923; assay: In vivo imaging of S. aureus thigh infection in mice; conditions: mouse thigh infection
Method: as §3, §5

[5] = system: Staphylococcus epidermidis F362; assay: In vivo imaging of S. epidermidis thigh infection in mice; conditions: mouse thigh infection
Method: as §3, §5

[6] = system: Streptococcus pneumoniae 49619; assay: In vivo imaging of S. pneumoniae thigh infection in mice; conditions: mouse thigh infection
Method: as §3, §5

[7] = system: E. faecalis, S. aureus, S. epidermidis, and S. pneumoniae; assay: Time course of imaging of infections caused by pathogenic bacteria in mice; assay type: in vivo
Method: as §3, §4
Accordingly, this time point was chosen for detailed analyses. Biodistribution studies were performed in mice injected with 1×10^8 S. aureus 25923 into one thigh. Six hours later, the mice were injected with 2 μCi of [^125I]FIAU, and, after another 24 h, the mice were killed, their organs were harvested, and radioactivity was determined. […]

S. aureus 25923 = assay: Minimal number of bacteria that could be imaged in mouse thigh; assay type: in vivo, Staphylococcus aureus; conditions: 1 h after bacterial injection
Method: as §3
To determine the minimal number of bacteria that could be imaged with this approach, various numbers of S. aureus 25923 were injected into mouse thighs. One hour later, the thigh tissue was excised, homogenized, and spread on blood agar plates. The 1-h time point was chosen because this was the earliest time point at which injections of [^125I]FIAU consistently produced discernable scintigraphic images of infectious foci. As few as 2×10^6 colony-forming units per gram of muscle tissue produced discernable signals.

C. novyi-NT [8] = assay: Imaging of intratumoral C. novyi-NT infection in tumor-bearing mice; assay type: in vivo, Clostridium novyi-NT
Method: All animal experiments were overseen and approved by the Animal Welfare Committee of The John Hopkins University and were in compliance with university standards. Six- to 8-wk-old athymic nu/nu or BALB/c mice, purchased from Harlan Bioproducts for Science (Indianapolis), were used for tumor implantation studies. Five million cells were injected s.c. into the right flank of each mouse. Tumor volume was calculated as length×width^2×0.5, and mice were treated with Clostridium novyi-NT spores when tumors occupied ˜250 mm^3. C. novyi-NT spores were prepared as described (15), and mice were i.v. injected with 300 million spores suspended in 250 μl of PBS.
as §4
BALB/c mice bearing CT-26 mouse colon tumors were treated with a single i.v. injection of C. novyi-NT and [^125I]FIAU was administered 24 h later.
For in vivo studies, FIAU was labeled with 1-125. The optimal time course for imaging mice harboring HCTZ 16 colon cancer xenografts was determined empirically by varying the time of injection of FIAU in relation to C. novyi-NT. Biodistribution studies were performed in 12 athymic nu/nu mice harboring HCTZ 16 xenografts ˜350-400 mm^3, six of which were injected with 300 million C. novyi-NT spores 24 hrs prior to 2 uCi of 1-125 FIAU. Eight hours after I-125 FIAU injection, all twelve mice were euthanized by cervical dislocation and the brain, lungs, heart, blood, small and large intestine, liver, kidneys, muscle and tumor were harvested and weighed. The activity in each tissue was measured using an automated gamma counter (LKB Wallace 1282 Compugamma CS Universal Gamma Counter). The percent-injected dose per gram of tissue (% ID/g) was calculated by comparison with samples of a standard dilution of the initial dose. […]

[9] = BALB/c mice, CT-26 tumors, tracer 24 h after C. novyi-NT i.v.

O=c1[nH]c(=O)n([C@@H]2O[C@H](CO)[C@@H](O)[C@@H]2F)cc1I [FIAU, 1-(2′-deoxy-2′-fluoro-β-D-arabinofuranosyl)-5-iodouracil]
Susceptibility of E. coli to nucleoside analog (growth inhibition) (Escherichia coli): quite sensitive | log10 IC50 (M) (Escherichia coli; wild type E. coli, Lauria Broth, overnight, OD600): -10 | Susceptibility of TK gene-deleted E. coli derivative (TK deficient E. coli): highly resistant | Growth inhibition of TK deficient E. coli (TK deficient E. coli; two-fold serial dilutions, overnight, OD600): not inhibited at any concentration | minimum inhibitory concentration 50 (MIC50) (C. novyi-NT [1]): ~20 µg/mL (≈ 53.8 µM)

Cc1cn([C@H]2C[C@H](N=[N+]=[N-])[C@@H](CO)O2)c(=O)[nH]c1=O [Zidovudine]
Susceptibility of E. coli to nucleoside analog (growth inhibition) (Escherichia coli): quite sensitive | Susceptibility of TK gene-deleted E. coli derivative (TK deficient E. coli): moderately resistant

O=c1[nH]c(=O)n([C@@H]2O[C@H](CO)[C@@H](O)[C@@H]2F)cc1[125I] [[^125I]FIAU, 2′-fluoro-2′deoxy-1-beta-D-arabinofuranosyl-5-iodo-uracil]
Earliest time at which signals from infectious lesions could be seen after injection (WT E. coli; WT E. coli thigh infection): 2 h | Time after injection at which signals were optimal (WT E. coli; WT E. coli thigh infection): 16 h | Uptake within infected thighs (whole-body planar scintigram) (WT E. coli; tracer i.v. 6 h after i.m. inoculation): demonstrated the uptake | Uptake in thighs inoculated with TK- E. coli [2]: no discernable uptake | Imaging of infectious foci due to E. faecalis [3]: readily imaged | Imaging of infectious foci due to S. aureus [4]: readily imaged | Imaging of infectious foci due to S. epidermidis [5]: readily imaged | Imaging of infectious foci due to S. pneumoniae [6]: readily imaged | Signal-to-noise ratio in infectious foci 24 h after administration ([7]; 24 h after administration): high signal-to-noise ratios | Signal-to-noise ratio by 48 h after administration ([7]; 48 h after administration of the tracer): very high signal-to-noise ratios | Earliest time at which robust signals could be observed after administration ([7]; mouse thigh infections, patient-derived strains): 4 h | Minimal number of bacteria producing discernable signals (S. aureus 25923): 2×10^6 colony-forming units per gram of muscle tissue | Earliest time at which tumors could be visualized after injection of tracer (C. novyi-NT [8]; [9]): 16 h | Time of maximum uptake after injection (C. novyi-NT [8]; [9]): 24 to 48 h | Uptake in tumors not treated with C. novyi-NT (C. novyi-NT [8]; CT-26 tumors, no C. novyi-NT): No uptake | Imaging of tumor types responsive to bacteriolytic therapy (C. novyi-NT [8]; HCT116, HuCCTI or CT26 tumors, after C. novyi-NT spores): able to be imaged

Nc1nc2c(ncn2COC(CO)CO)c(=O)[nH]1 [genciclovir]
Susceptibility of E. coli to nucleoside analog (growth inhibition) (Escherichia coli): resistant

Nc1nc2c(ncn2CCC(CO)CO)c(=O)[nH]1 [penciclovir]
Susceptibility of E. coli to nucleoside analog (growth inhibition) (Escherichia coli): resistant
